Results published in the NIST ThermoML archive (doi:10.1016/j.fluid.2011.12.029).

Details: Liquid, Vibrating tube method

CCC[n+]1ccccc1Oc1ccc(Cl)c[n+]1CCOS(=O)(=O)[O-].F[B-](F)(F)F
mass density [kg/m3]
Details | 308.15 K | 313.15 K | 318.15 K | 323.15 K | 328.15 K | 333.15 K
100 kPa | – | 1242.44 | 1238.82 | 1235.3 | 1231.68 | 1228.25
5000 kPa | – | 1244.75 | 1241.01 | 1237.63 | 1233.97 | 1230.56
10000 kPa | – | 1247.02 | 1243.39 | 1239.98 | 1236.25 | 1232.96
15000 kPa | – | 1249.22 | 1245.52 | 1242.24 | 1238.61 | 1235.23
20000 kPa | – | 1251.35 | 1247.69 | 1244.44 | 1240.87 | 1237.65
25000 kPa | – | 1253.46 | 1249.81 | 1246.62 | 1243.01 | 1239.91
30000 kPa | – | 1255.5 | 1251.93 | 1248.63 | 1245.19 | 1241.9
35000 kPa | 1260.93 | 1257.51 | 1253.97 | 1250.7 | 1247.33 | 1244.07
40000 kPa | 1262.88 | 1259.52 | 1255.96 | 1252.76 | 1249.3 | 1246.16
45000 kPa | 1264.72 | 1261.48 | 1257.93 | 1254.69 | 1251.23 | 1248.15
50000 kPa | 1266.61 | 1263.42 | 1259.75 | 1256.63 | 1253.26 | 1250.14
55000 kPa | 1268.36 | 1265.2 | 1261.48 | 1258.52 | 1255.02 | 1252
60000 kPa | 1270.11 | 1267 | 1263.53 | 1260.31 | 1256.98 | 1253.93
65000 kPa | 1271.84 | 1268.66 | 1265.2 | 1262.15 | 1258.79 | 1255.7
